# Results as given in patent US8183238B2, “Bicyclic and tricyclic compounds as KAT II inhibitors” (priority 2009, dated 2012).
# Where a name gives a salt, the structure may show the parent alone.
# Target: human KAT II (hKAT II) enzyme (Homo sapiens, UniProt Q8N5Z0)
# Test: KAT II Inhibition Spectra Assay
# Format: biochemical
# Conditions: Table 6; hKAT II, decrease in OD370, 37° C., 15-20 h; read-out: KATII IC50
# Method in brief: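 hKAT II (15 nM, 3× stock) converts L-kynurenine (3 mM, 3× stock) with α-ketoglutarate and PLP in Tris acetate; 15–20 h at 37 °C. Inhibition of the OD370 decrease read versus DMSO wells across a concentration range gives IC50.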
# Chain of human KAT II (hKAT II) enzyme (Q8N5Z0 30-425): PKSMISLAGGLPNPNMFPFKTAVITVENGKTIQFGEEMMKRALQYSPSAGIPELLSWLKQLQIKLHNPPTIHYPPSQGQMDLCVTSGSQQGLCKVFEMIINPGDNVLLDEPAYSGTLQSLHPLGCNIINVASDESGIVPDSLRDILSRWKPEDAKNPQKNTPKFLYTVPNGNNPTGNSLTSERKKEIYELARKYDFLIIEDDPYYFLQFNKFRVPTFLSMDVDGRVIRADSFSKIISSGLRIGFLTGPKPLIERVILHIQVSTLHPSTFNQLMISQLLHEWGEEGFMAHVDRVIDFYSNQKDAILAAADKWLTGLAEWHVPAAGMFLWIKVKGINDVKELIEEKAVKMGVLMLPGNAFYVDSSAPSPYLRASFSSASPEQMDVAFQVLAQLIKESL
row,SMILES,IC50 [nM]
1,"COc1ncccc1-c1ccc2c(c1)C[C@H](N)C(=O)N2O [Example 151, (3S)-3-amino-1-hydroxy-6-(2-methoxypyridin-3-yl)-3,4-dihydroquinolin-2(1H)-one, trifluoroacetate salt]",63.6
2,"N[C@H]1Cc2cc(-c3cc(F)ccc3Cl)ccc2N(O)C1=O [Example 152, (3S)-3-amino-6-(2-chloro-5-fluorophenyl)-1-hydroxy-3,4-dihydroquinolin-2(1H)-one, trifluoroacetate salt]",94
3,"COc1ccc(-c2ccc3c(c2)C[C@H](N)C(=O)N3O)cc1 [Example 153, (3S)-3-amino-1-hydroxy-6-(4-methoxyphenyl)-3,4-dihydroquinolin-2(1H)-one, trifluoroacetate salt]",162
4,"N[C@H]1Cc2cc(-c3ccccc3Cl)ccc2N(O)C1=O [Example 154, (3S)-3-amino-6-(2-chlorophenyl)-1-hydroxy-3,4-dihydroquinolin-2(1H)-one, trifluoroacetate salt]",96.5
5,"COc1cccc(-c2ccc3c(c2)C[C@H](N)C(=O)N3O)c1 [Example 155, (3S)-3-amino-1-hydroxy-6-(3-methoxyphenyl)-3,4-dihydroquinolin-2(1H)-one, trifluoroacetate salt]",136
6,"N[C@H]1Cc2cc(Oc3ccc(F)c(Cl)c3)ccc2N(O)C1=O [Example 156, (3S)-3-amino-6-(3-chloro-4-fluorophenoxy)-1-hydroxy-3,4-dihydroquinolin-2(1H)-one, trifluoroacetate salt]",86.7
7,"N[C@H]1Cc2cc(Oc3cc(F)ccc3F)ccc2N(O)C1=O [Example 157, (3S)-3-amino-6-(2,5-difluorophenoxy)-1-hydroxy-3,4-dihydroquinolin-2(1H)-one, trifluoroacetate salt]",68.5
8,"N[C@H]1Cc2cc(Oc3ccc(Cl)c(C(F)(F)F)c3)ccc2N(O)C1=O [Example 158, (3S)-3-amino-6-[4-chloro-3-(trifluoromethyl)phenoxy]-1-hydroxy-3,4-dihydroquinolin-2(1H)-one, trifluoroacetate salt]",126
9,"N[C@H]1Cc2cc(Oc3ccc(F)c(C(F)(F)F)c3)ccc2N(O)C1=O [Example 159, (3S)-3-amino-6-[4-fluoro-3-(trifluoromethyl)phenoxy]-1-hydroxy-3,4-dihydroquinolin-2(1H)-one, trifluoroacetate salt]",109
10,"N[C@H]1Cc2cc(Oc3cccc(C(F)(F)F)c3F)ccc2N(O)C1=O [Example 160, (3S)-3-amino-6-[2-fluoro-3-(trifluoromethyl)phenoxy]-1-hydroxy-3,4-dihydroquinolin-2(1H)-one, trifluoroacetate salt]",101
11,"N[C@H]1Cc2cc(Oc3ccc(F)cc3Cl)ccc2N(O)C1=O [Example 161, (3S)-3-amino-6-(2-chloro-4-fluorophenoxy)-1-hydroxy-3,4-dihydroquinolin-2(1H)-one, trifluoroacetate salt]",54
12,"N[C@H]1Cc2cc(Oc3ccc(F)c(F)c3)ccc2N(O)C1=O [Example 162, (3S)-3-amino-6-(3,4-difluorophenoxy)-1-hydroxy-3,4-dihydroquinolin-2(1H)-one, trifluoroacetate salt]",46.7
13,"N[C@H]1Cc2cc(Oc3ccc(Cl)c(Cl)c3)ccc2N(O)C1=O [Example 163, (3S)-3-amino-6-(3,4-dichlorophenoxy)-1-hydroxy-3,4-dihydroquinolin-2(1H)-one, trifluoroacetate salt]",60
14,"N#Cc1ccc(Oc2ccc3c(c2)C[C@H](N)C(=O)N3O)cc1C(F)(F)F [Example 164, 4-{[(3S)-3-amino-1-hydroxy-2-oxo-1,2,3,4-tetrahydroquinolin-6-yl]oxy}-2-(trifluoromethyl)benzonitrile, trifluoroacetate salt]",42.2
15,"Cc1ccc(F)cc1Oc1ccc2c(c1)C[C@H](N)C(=O)N2O [Example 165, (3S)-3-amino-6-(5-fluoro-2-methylphenoxy)-1-hydroxy-3,4-dihydroquinolin-2(1H)-one, trifluoroacetate salt]",96.6
